Data published in patent publication US6641802B2, “Amino acid compounds and photoprotecting compositions comprised thereof” (Societe L'Oreal S.A., priority 2000, dated 2003).

Tests used:
[1] = UV absorption spectrum of the compound as a 5% dispersion in liquid petrolatum (total transmission and reflection, spectrophotometer with integrating sphere); assay type: physicochemical; conditions: 60 μm film
Experimental: The UV absorption spectrum of the compound was measured as a 5% dispersion in liquid petrolatum. The total transmission and reflection of the dispersion was determined on a 60 μm film with a spectrophotometer equipped with an integrating sphere.
The UV absorption spectrum of the compound was measured as a 5% dispersion in liquid petrolatum. The total transmission and reflection of the dispersion was determined on a 60 μm film with a spectrophotometer equipped with an integrating sphere (8 trials).

SMILES	absorption maximum [1] [nm]	shoulder (first shoulder) [1] [nm]	optical density at 310 nm [1]	melting point [°C]
COc1ccc(C=CC(=O)NCCCCC(N)C(=O)O)cc1 (centres unmarked) [Example 2]	300	320	0.4	> 260
N[C@@H](CCCCNC(=O)C=Cc1ccccc1)C(=O)O [Example 1, N^ε-cinnamoyl-L-lysine]	260	305	0.8	> 260
